Reference: article PMC11684029, “Discovery of VU6024578/BI02982816: An mGlu1 Positive Allosteric Modulator with Efficacy in Preclinical Antipsychotic and Cognition Models” (Journal of Medicinal Chemistry, 2024)

How the values were obtained:
[1] = molecular target: T1, NK3 (Homo sapiens, UniProt P29371); assay: Eurofins radioligand binding panel; settings: antagonist radioligand
T1 construct: Eurofins
Text: (§1) Table S1. Eurofins Lead Profiling Screen Data
(§2) This is a radioligand binding panel of 80 targets including GPCRs, ion channels, transporters and nuclear hormones. Biochemical assay results are presented as the percent inhibition of specific […]
(§3) Results showing an inhibition or stimulation higher than 50% are considered to represent significant effect and are highlighted

[2] = molecular target: T2, H1 (Homo sapiens, UniProt P35367); assay: Eurofins radioligand binding panel; settings: antagonist radioligand
T2 construct: Eurofins (panel run as a service)
Text: as §1, §2, §3

[3] = molecular target: T3, Y2 (Homo sapiens, UniProt P49146); assay: Eurofins radioligand binding panel; settings: agonist radioligand
T3 construct: Eurofins
Text: as §1, §2, §3

[4] = molecular target: T4, NOP (ORL1) (Homo sapiens, UniProt P41146); assay: Eurofins radioligand binding panel; settings: agonist radioligand
T4 construct: Eurofins
Text: as §1, §2, §3

[5] = molecular target: T5, NTS1 (NT1) (Homo sapiens, UniProt P30989); assay: Eurofins radioligand binding panel; settings: agonist radioligand
T5 construct: Eurofins
Text: as §1, §2, §3

[6] = molecular target: T6, 5-HT1B (Homo sapiens, UniProt P28222); assay: Eurofins radioligand binding panel; settings: antagonist radioligand
T6 construct: Eurofins
Text: as §1, §2, §3

[7] = molecular target: T7, GR (Homo sapiens, UniProt P04150); assay: Eurofins radioligand binding panel; settings: agonist radioligand
T7 construct: Eurofins
Text: as §1, §2, §3

[8] = molecular target: T8, ETB (Homo sapiens, UniProt P24530); assay: Eurofins radioligand binding panel; settings: agonist radioligand
T8 construct: Eurofins (panel run as a service)
Text: as §1, §2, §3

[9] = molecular target: T9, M5 (Homo sapiens, UniProt P08912); assay: Eurofins radioligand binding panel; settings: antagonist radioligand
T9 construct: Eurofins
Text: as §1, §2, §3

[10] = molecular target: T10, CCR1 (Homo sapiens, UniProt P32246); assay: Eurofins radioligand binding panel; settings: agonist radioligand
T10 construct: Eurofins (panel run as a service)
Text: as §1, §2, §3

[11] = test system: Na+ channel (site 2); assay: Eurofins radioligand binding panel; settings: antagonist radioligand
Text: as §1, §2, §3

[12] = molecular target: T11, IP (PGI2) (Homo sapiens, UniProt P43119); assay: Eurofins radioligand binding panel; settings: agonist radioligand
T11 construct: Eurofins
Text: as §1, §2, §3

[13] = molecular target: T12, 5-HT6 (Homo sapiens, UniProt P50406); assay: Eurofins radioligand binding panel; settings: agonist radioligand
T12 construct: Eurofins
Text: as §1, §2, §3

[14] = molecular target: T13, kappa (KOP) (Homo sapiens, UniProt P41145); assay: Eurofins radioligand binding panel; settings: agonist radioligand
T13 construct: Eurofins
Text: as §1, §2, §3

[15] = molecular target: T14, 5-HT2A (Homo sapiens, UniProt P28223); assay: Eurofins radioligand binding panel; settings: antagonist radioligand
T14 construct: Eurofins
Text: as §1, §2, §3

[16] = molecular target: T15, mu (MOP) (Homo sapiens, UniProt P35372); assay: Eurofins radioligand binding panel; settings: agonist radioligand
T15 construct: Eurofins
Text: as §1, §2, §3

[17] = molecular target: T16, NK1 (Homo sapiens, UniProt P25103); assay: Eurofins radioligand binding panel; settings: agonist radioligand
T16 construct: Eurofins
Text: as §1, §2, §3

[18] = molecular target: T17, D2S (Homo sapiens, UniProt P14416); assay: Eurofins radioligand binding panel; settings: antagonist radioligand
T17 construct: Eurofins (panel run as a service)
Text: as §1, §2, §3

[19] = molecular target: T18, VPAC1 (VIP1) (Homo sapiens, UniProt P32241); assay: Eurofins radioligand binding panel; settings: agonist radioligand
T18 construct: Eurofins
Text: as §1, §2, §3

[20] = molecular target: T19, norepinephrine transporter (Homo sapiens, UniProt P23975); assay: Eurofins radioligand binding panel; settings: antagonist radioligand
T19 construct: Eurofins
Text: as §1, §2, §3

[21] = test system: Cl- channel (GABA-gated); assay: Eurofins radioligand binding panel; settings: antagonist radioligand
Text: as §1, §2, §3

[22] = molecular target: T20, PPARgamma (Homo sapiens, UniProt P37231); assay: Eurofins radioligand binding panel; settings: agonist radioligand
T20 construct: Eurofins
Text: as §1, §2, §3

[23] = molecular target: T21, GAL1 (Homo sapiens, UniProt P47211); assay: Eurofins radioligand binding panel; settings: agonist radioligand
T21 construct: Eurofins (panel run as a service)
Text: as §1, §2, §3

[24] = test system: P2X; assay: Eurofins radioligand binding panel; settings: agonist radioligand
Text: as §1, §2, §3

[25] = molecular target: T22, V1a (Homo sapiens, UniProt P37288); assay: Eurofins radioligand binding panel; settings: agonist radioligand
T22 construct: Eurofins
Text: as §1, §2, §3

[26] = molecular target: T23, PAC1 (PACAP) (Homo sapiens, UniProt P41586); assay: Eurofins radioligand binding panel; settings: agonist radioligand
T23 construct: Eurofins
Text: as §1, §2, §3

[27] = molecular target: T24, EP2 (Homo sapiens, UniProt P43116); assay: Eurofins radioligand binding panel; settings: agonist radioligand
T24 construct: Eurofins
Text: as §1, §2, §3

[28] = molecular target: T25, D4.4 (Homo sapiens, UniProt P21917); assay: Eurofins radioligand binding panel; settings: antagonist radioligand
T25 construct: Eurofins (panel run as a service)
Text: as §1, §2, §3

[29] = molecular target: T26, 5-HT7 (Homo sapiens, UniProt P34969); assay: Eurofins radioligand binding panel; settings: agonist radioligand
T26 construct: Eurofins
Text: as §1, §2, §3

[30] = molecular target: T27, GAL2 (Homo sapiens, UniProt O43603); assay: Eurofins radioligand binding panel; settings: agonist radioligand
T27 construct: Eurofins (panel run as a service)
Text: as §1, §2, §3

[31] = molecular target: T28, 5-HT2C (Homo sapiens, UniProt P28335); assay: Eurofins radioligand binding panel; settings: antagonist radioligand
T28 construct: Eurofins
Text: as §1, §2, §3

[32] = rat IV plasma:brain level (PBL) PK; type: in vivo

T28 sequence (P28335 33-458): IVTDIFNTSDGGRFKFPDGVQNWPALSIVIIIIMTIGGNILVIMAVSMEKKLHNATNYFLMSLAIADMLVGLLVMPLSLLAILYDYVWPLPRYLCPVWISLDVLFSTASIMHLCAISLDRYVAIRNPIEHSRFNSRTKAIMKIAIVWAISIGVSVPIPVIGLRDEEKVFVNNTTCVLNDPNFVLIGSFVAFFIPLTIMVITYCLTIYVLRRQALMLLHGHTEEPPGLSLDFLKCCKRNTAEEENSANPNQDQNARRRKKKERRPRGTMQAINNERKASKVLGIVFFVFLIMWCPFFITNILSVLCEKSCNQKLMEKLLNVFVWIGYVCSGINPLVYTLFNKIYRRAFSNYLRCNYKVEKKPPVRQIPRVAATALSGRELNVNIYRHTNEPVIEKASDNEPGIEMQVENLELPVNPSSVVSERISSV
T18 sequence (P32241 31-457): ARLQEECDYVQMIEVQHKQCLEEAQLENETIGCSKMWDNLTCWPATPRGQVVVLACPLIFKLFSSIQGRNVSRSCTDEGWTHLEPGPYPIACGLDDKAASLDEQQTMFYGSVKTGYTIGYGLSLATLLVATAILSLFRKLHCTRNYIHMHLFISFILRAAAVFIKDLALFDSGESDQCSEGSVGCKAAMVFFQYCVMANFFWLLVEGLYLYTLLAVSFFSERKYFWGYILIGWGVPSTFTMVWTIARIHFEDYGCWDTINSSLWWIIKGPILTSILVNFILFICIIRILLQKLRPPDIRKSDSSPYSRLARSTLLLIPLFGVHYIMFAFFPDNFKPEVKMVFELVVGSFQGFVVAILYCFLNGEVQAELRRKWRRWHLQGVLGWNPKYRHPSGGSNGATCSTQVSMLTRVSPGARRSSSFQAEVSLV
T20 sequence (P37231 whole entry): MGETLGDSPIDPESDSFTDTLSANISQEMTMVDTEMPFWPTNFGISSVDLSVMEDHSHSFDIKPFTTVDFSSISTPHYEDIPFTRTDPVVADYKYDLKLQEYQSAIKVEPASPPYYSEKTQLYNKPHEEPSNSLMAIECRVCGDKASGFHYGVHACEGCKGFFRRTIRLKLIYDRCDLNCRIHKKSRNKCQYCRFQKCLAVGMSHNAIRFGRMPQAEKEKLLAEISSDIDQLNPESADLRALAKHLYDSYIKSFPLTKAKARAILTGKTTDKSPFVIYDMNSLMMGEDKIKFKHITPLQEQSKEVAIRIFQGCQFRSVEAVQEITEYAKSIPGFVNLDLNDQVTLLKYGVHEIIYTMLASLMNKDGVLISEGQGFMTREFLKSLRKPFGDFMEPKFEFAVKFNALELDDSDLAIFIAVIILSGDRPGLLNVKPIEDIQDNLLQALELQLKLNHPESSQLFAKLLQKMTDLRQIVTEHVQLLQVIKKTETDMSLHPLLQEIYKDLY
T21 sequence (P47211 whole entry): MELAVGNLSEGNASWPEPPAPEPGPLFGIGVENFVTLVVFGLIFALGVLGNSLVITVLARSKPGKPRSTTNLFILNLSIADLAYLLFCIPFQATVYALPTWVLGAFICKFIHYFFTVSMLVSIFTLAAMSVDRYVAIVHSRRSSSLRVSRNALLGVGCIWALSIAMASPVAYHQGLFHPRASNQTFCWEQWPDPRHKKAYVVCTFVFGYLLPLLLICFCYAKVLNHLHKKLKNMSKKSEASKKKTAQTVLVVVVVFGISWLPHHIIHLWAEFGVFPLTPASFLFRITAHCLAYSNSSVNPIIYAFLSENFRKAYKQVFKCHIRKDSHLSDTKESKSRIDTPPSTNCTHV
T17 sequence (P14416 1-414 isoform P14416-2): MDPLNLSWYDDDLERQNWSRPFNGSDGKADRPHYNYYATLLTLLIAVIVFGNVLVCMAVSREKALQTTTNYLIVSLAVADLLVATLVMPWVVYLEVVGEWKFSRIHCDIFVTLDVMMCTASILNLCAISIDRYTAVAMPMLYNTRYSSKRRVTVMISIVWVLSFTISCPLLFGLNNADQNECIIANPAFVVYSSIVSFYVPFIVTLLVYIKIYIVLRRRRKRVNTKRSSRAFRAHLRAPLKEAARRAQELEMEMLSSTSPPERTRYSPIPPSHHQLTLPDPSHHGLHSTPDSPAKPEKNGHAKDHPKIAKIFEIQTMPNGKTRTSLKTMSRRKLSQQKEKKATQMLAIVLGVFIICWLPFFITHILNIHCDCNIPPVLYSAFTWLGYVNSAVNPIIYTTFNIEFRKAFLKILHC
T13 sequence (P41145 whole entry): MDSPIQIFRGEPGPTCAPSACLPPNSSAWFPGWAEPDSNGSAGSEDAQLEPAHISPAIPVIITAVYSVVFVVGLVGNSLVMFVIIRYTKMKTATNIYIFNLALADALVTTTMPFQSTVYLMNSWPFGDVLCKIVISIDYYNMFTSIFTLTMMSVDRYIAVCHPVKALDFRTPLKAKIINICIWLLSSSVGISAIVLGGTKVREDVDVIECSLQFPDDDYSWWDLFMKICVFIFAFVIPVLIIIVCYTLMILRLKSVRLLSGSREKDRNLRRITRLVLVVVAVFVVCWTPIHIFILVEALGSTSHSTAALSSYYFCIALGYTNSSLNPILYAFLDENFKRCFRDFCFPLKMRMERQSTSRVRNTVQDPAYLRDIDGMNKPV
T23 sequence (P41586 21-468): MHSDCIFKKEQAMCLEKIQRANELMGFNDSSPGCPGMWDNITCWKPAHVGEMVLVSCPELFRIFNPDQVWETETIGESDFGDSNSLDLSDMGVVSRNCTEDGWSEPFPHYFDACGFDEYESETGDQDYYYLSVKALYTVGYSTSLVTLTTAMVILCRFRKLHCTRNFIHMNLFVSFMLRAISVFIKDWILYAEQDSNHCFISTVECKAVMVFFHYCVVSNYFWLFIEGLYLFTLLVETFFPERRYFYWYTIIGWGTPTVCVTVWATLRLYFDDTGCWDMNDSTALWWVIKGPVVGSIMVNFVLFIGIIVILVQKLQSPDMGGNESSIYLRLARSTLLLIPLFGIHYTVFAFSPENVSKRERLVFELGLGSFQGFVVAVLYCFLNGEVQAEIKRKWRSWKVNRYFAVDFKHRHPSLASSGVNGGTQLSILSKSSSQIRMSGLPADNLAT
T14 sequence (P28223 whole entry): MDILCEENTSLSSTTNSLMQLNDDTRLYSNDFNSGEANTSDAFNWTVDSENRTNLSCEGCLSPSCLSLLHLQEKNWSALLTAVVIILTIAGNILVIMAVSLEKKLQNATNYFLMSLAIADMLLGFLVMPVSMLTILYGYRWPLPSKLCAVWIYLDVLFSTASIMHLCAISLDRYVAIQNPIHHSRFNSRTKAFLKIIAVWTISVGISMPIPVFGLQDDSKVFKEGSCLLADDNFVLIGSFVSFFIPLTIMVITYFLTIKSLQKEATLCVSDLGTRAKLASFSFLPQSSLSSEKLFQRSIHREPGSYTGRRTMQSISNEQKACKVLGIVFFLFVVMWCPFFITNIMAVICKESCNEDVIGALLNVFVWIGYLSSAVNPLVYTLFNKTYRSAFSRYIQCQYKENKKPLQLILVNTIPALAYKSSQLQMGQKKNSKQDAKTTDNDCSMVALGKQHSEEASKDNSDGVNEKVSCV
T25 sequence (P21917 whole entry): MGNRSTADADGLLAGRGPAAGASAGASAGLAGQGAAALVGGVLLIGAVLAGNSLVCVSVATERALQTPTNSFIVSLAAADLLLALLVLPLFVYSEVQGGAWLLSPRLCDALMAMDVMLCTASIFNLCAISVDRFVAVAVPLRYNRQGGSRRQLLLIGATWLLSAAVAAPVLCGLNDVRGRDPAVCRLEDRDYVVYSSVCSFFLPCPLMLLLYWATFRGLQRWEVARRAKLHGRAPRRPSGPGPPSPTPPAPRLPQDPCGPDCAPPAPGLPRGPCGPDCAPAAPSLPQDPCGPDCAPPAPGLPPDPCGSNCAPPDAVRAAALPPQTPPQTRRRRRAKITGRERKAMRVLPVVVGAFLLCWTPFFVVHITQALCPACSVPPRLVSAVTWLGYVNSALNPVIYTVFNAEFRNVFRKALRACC
T11 sequence (P43119 whole entry): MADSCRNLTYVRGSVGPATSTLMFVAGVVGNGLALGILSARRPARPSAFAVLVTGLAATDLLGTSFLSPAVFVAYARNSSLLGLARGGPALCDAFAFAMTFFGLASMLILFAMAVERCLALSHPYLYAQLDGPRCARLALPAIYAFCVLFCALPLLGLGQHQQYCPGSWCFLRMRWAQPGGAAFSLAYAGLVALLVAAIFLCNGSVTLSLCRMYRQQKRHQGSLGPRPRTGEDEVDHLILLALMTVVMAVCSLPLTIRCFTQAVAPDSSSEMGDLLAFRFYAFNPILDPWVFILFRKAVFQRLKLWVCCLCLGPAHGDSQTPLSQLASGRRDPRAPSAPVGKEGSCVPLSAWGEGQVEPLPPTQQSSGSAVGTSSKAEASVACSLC
T24 sequence (P43116 whole entry): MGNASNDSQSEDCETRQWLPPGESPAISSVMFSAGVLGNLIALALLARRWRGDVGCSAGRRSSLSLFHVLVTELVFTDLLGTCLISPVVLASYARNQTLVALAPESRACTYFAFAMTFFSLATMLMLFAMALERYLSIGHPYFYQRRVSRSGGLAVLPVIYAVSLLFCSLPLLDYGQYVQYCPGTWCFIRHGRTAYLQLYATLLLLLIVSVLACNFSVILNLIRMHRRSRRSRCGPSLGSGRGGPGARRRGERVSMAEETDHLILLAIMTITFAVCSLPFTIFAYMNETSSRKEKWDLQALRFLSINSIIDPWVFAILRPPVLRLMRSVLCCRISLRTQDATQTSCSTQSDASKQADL
T10 sequence (P32246 whole entry): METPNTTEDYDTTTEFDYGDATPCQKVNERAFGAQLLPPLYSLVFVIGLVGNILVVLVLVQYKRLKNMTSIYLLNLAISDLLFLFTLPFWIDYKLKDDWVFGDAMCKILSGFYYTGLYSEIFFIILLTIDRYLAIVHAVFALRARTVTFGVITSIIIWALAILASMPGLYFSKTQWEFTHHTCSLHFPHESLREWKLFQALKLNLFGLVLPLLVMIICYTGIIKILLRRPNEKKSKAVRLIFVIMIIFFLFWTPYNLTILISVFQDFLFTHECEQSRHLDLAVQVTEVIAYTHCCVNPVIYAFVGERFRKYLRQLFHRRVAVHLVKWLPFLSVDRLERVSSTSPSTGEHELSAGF

Work on `Cn1nc(-c2ccnn2C)cc1CNC(=O)c1cc(-c2ccco2)ccc1Cl` [Compound 19d, 2-Chloro-N-((1,2′-dimethyl-1H,2’H-[3,3′-bipyrazol]-5-yl)methyl)-5-(furan-2-yl)benzamide] yielded an inhibition at 10 µM [1] of -8%, an inhibition at 10 µM [2] of 6% and an inhibition at 10 µM [3] of -18%. For the same compound, the inhibition at 10 µM [4] was -1%, the inhibition at 10 µM [5] was -1% and the inhibition at 10 µM [6] was 11%. The inhibition at 10 µM [7] was 0%, the inhibition at 10 µM [8] was -27% and the inhibition at 10 µM [9] was 3%. For the same compound, the inhibition at 10 µM [10] was -1%, the “% Inhibition at 10 µM” value [11] was 14% and the inhibition at 10 µM [12] was -7%. It also gave an inhibition at 10 µM [13] of -7%, an inhibition at 10 µM [14] of 11% and an inhibition at 10 µM [15] of -1%. The inhibition at 10 µM [16] was 14%, the inhibition at 10 µM [17] was 46% and the inhibition at 10 µM [18] was 6%. The inhibition at 10 µM [19] was -4%, the inhibition at 10 µM [20] was 11% and the “% Inhibition at 10 µM” value [21] was 9%. For the same compound, the inhibition at 10 µM [22] was 2%, the inhibition at 10 µM [23] was -4% and the “% Inhibition at 10 µM” value [24] was -6%. The inhibition at 10 µM [25] was 9%, the inhibition at 10 µM [26] was -2% and the inhibition at 10 µM [27] was 41%. It also gave an inhibition at 10 µM [28] of 22%, an inhibition at 10 µM [29] of -4% and an inhibition at 10 µM [30] of -9%. The inhibition at 10 µM [31] was 3%, the Kp at 15 min ([32]; Sprague-Dawley, 0.25 mg/kg/compound, rat IV PBL, brain:plasma) was 0.99 and the Kp uu at 15 min ([32]; Sprague-Dawley, brain, 0.25 mg/kg/compound, rat IV PBL) was 0.82. It also gave a half-life ([32]; plasma, iv, 1 mg/kg, rat PK PBL experiment) of 3.6 h, a clearance ([32]; plasma, iv, 1 mg/kg, rat PK PBL experiment, read-out: CLp) of 8.3 mL/min/kg and an MRT ([32]; plasma, iv, 1 mg/kg, rat PK PBL experiment, read-out: MRT) of 3.5 h. It also gave a Vd ([32]; plasma, iv, 1 mg/kg, rat PK PBL experiment, read-out: Vss) of 1.78 L/kg.
